Earlier results on one molecule are cited in patent US20070196518A1, “Composition and Method for Mitigating a Negative Effect of Alcohol Consumption” (priority 2005, published 2007).

The conditions of the data set: on average, in subjects who consumed alcohol.

Turning to `Cc1ncc(CO)c(CO)c1O` [Vitamin B6, Pyridoxine], the “decrease in the number of hangover symptoms” value is recorded as 50%.
